# Measured values from paper PMC2394492 (British Journal of Cancer, 2003).
# What was measured:
# [1] = Plasma pharmacokinetics of 5-FU and FBAL after PVI of 5-FU and oral S-1 in patients; type: in vivo, human
# Description: Infusion was carried out with the use of a battery-operated pump (STC-508, Terumo Co., Ltd., Tokyo, Japan) for five consecutive days. […] After a washout period of 9 days, patients received S-1 in two divided doses daily for 28 consecutive days. S-1 was administered orally within 1 h after breakfast and supper, at about 0900 and 1900 hours The daily dose of S-1 in terms of tegafur was 80 mg day^−1 in patients with a body surface area (BSA) of <1.25 m^2, 100 mg day^−1 in those with a BSA of ⩾1.25 m^2 to <1.5 m^2, and 120 mg day^−1 in those with a BSA of ⩾1.5 m^2.
# On days 2–4, one blood sample was obtained at 0900 hours before the start of the next 24-h cycle. During oral administration of S-1, blood samples were taken on day 1 before the first dose of the day and at 1, 2, 4, 6, and 10 h. On days 2–4 of S-1 treatment, blood samples were taken before administration in the morning and at 4 and 10 h. On day 5, blood samples were obtained at 0, 2, 4, and 10 h. Peripheral blood samples (6 ml per sampling time) were collected in heparinised tubes and centrifuged at 1000 g for 15 min at 4°C. The plasma was stored at −20°C until analysis. Urine was collected from 0 to 24 h after the start of drug administration on day 1 of each treatment and refrigerated during the collection period.
# [2] = target: T1, dihydropyrimidine dehydrogenase (DPD) (Homo sapiens, UniProt Q12882); assay: Plasma uracil concentration as surrogate marker of DPD inhibition (pharmacodynamic analysis); type: in vivo; conditions: for AUC of uracil: 10 patients, surrogate marker of DPD inhibition
# T1 construct: from tissue; host or cells: patients in vivo (DPD mainly in the liver); plasma sampled
# T1 sequence (Q12882 4-1025): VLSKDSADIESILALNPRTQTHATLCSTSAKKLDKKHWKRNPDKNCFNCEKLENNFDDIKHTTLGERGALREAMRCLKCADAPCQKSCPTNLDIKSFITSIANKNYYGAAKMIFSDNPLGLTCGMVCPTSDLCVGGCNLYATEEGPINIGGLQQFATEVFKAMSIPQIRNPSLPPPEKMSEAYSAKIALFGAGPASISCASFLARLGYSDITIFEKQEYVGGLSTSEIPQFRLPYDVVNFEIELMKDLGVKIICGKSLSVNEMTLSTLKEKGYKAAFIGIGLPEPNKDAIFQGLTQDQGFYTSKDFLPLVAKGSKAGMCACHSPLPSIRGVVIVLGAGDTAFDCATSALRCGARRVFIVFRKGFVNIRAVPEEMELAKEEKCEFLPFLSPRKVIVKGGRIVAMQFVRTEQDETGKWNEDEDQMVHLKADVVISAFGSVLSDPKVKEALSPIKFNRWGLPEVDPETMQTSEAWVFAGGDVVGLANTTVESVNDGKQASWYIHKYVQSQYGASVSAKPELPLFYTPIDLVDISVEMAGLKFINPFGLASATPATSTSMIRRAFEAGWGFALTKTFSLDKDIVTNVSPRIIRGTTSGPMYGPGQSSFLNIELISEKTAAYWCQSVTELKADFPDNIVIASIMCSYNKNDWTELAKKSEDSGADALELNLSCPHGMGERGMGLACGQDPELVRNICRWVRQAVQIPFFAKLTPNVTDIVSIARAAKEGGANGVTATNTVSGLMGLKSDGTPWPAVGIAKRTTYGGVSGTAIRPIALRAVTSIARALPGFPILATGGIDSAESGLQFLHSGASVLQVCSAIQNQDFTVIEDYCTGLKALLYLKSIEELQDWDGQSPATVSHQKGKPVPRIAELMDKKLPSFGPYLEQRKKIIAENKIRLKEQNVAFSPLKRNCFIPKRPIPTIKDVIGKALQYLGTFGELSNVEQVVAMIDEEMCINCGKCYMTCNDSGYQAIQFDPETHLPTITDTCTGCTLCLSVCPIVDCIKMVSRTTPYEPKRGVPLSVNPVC
# Description: All 10 patients received 5-FU by PVI at a rate of 250 mg m^−2 day^−1 via a peripheral vein. Infusion was carried out with the use of a battery-operated pump (STC-508, Terumo Co., Ltd., Tokyo, Japan) for five consecutive days. The assigned daily dose of 5-FU was diluted in 500 ml of normal saline for infusion.
# On days 1 and 5 of 5-FU PVI, blood samples were taken at 0 (before administration), 2, 6, and 10 h after the start of the infusion (0900 hours in all patients). On days 2–4, one blood sample was obtained at 0900 hours before the start of the next 24-h cycle. […] On day 5, blood samples were obtained at 0, 2, […], and 10 h. Peripheral blood samples (6 ml per sampling time) were collected in heparinised tubes and centrifuged at 1000 g for 15 min at 4°C. The plasma was stored at −20°C until analysis. Urine was collected from 0 to 24 h after the start of drug administration on day 1 of each treatment and refrigerated during the collection period.
# Analysis of 5-FU and uracil was carried out as described by [Matsushima et al (1997)], with minor modification. 5-Fluorouracil and uracil were extracted with ethyl acetate after washing with dichloromethane and were subjected to a reaction to induce their trimethylsilyl derivatives. 5-Fluorouracil and uracil were analysed by electron impact ionisation gas-chromatography/mass-spectrometry (GC–MS). For analysis of 5-FU by GC–MS, stable isotopes were used as internal standards. The measurable ranges of plasma or urine levels were 1–400 ng ml^−1 for 5-FU and 5–2000 ng ml^−1 for uracil. For analysis of FBAL, plasma was deproteinised with ethanol and washed with dichloromethane. F-β-alanine was treated with 2,4-dinitrofluorobenzene to derive its dinitrophenyl ester, and the reaction product was extracted with dichloromethane under acidic conditions. The reaction product was separated by high-pressure liquid chromatography (LC) with a reversed-phase column, and LC/tandem-mass spectrometry was performed with the use of negative ion-electron spray ionisation. DL-norvaline was used as an internal standard. […]
# [3] = cited from earlier work
# [4] = tested on: dihydropyrimidine dehydrogenase (DPD); conditions: in vitro; background statement, no reference given; cited from earlier work
# [5] = patients given 5-FU by PVI, ref Lokich et al, 1989
smiles,measurement,setting,value
"O=c1[nH]cc(F)c(=O)[nH]1 [5-FU, 5-fluorouracil]",time to steady state of plasma 5-FU concentration after the start of PVI,[1]; PVI of 5-FU,2 h
same,AUC0–10 h of 5-FU,"[1]; plasma, day 5 (abstract)",728 ± 113 ng·h/mL
same,AUC of uracil,"[2]; Day 1, 0 to 10 h",200 ± 60 ng·h/mL
same,AUC of uracil,"[2]; Day 5, 0 to 10 h",252 ± 60 ng·h/mL
same,AUC0–10 h of uracil,[2]; day 5 (abstract),252 ± 60 ng·h/mL
same,dose-limiting toxicity (DLT),"[3]; 5-FU by PVI, ref Lokich et al, 1989",HFS
same,incidence of grade 3 leukopenia,[3]; [5],1%
same,incidence of hand–foot syndrome,[3]; [5],about 23%
same,incidence of stomatitis,[3]; [5],about 23%
"Oc1cc(O)c(Cl)cn1 [CDHP, 5-chloro-2,4-dihydroxypyridine]",DPD-inhibitory activity relative to that of uracil,[4],180 fold
CCCCCOC(=O)Nc1nc(=O)n([C@@H]2O[C@H](C)[C@@H](O)[C@H]2O)cc1F [capecitabine],incidence of grade 3 HFS,"[3]; capecitabine, ref Van Cutsem et al, 2000, 2001, Hoff et al, 2001",15–18%
same,incidence of HFS,"[3]; capecitabine, ref Van Cutsem et al, 2000",45%
same,incidence of cardiotoxicity,"[3]; randomised phase II trial, metastatic colorectal cancer, five out of 108, ref Van Cutsem et al, 2000",5%
same,incidence of paresthesia,"[3]; randomised phase II trial, metastatic colorectal cancer, ref Van Cutsem et al, 2000",12%
